According to patent US6867192B1, “Compounds useful in the treatment of inflammatory diseases” (priority 1998, dated 2005):

Molecular target: T1, integrin α4β7, expressed on the RPMI 8866 (human B lymphoid cell line) cell membrane with MAdCAM-1 (Homo sapiens, UniProt P13612+P26010)
T1 construct: integrin α4β7, expressed on the RPMI 8866 (human B lymphoid cell line) cell membrane; endogenous in cells; host or cells: RPMI 8866 cells (integrin). zzMAdCAM-1 was made in house in baculovirus-infected Spodoptera frugiperda cells
T1 sequence (P13612 34-1032): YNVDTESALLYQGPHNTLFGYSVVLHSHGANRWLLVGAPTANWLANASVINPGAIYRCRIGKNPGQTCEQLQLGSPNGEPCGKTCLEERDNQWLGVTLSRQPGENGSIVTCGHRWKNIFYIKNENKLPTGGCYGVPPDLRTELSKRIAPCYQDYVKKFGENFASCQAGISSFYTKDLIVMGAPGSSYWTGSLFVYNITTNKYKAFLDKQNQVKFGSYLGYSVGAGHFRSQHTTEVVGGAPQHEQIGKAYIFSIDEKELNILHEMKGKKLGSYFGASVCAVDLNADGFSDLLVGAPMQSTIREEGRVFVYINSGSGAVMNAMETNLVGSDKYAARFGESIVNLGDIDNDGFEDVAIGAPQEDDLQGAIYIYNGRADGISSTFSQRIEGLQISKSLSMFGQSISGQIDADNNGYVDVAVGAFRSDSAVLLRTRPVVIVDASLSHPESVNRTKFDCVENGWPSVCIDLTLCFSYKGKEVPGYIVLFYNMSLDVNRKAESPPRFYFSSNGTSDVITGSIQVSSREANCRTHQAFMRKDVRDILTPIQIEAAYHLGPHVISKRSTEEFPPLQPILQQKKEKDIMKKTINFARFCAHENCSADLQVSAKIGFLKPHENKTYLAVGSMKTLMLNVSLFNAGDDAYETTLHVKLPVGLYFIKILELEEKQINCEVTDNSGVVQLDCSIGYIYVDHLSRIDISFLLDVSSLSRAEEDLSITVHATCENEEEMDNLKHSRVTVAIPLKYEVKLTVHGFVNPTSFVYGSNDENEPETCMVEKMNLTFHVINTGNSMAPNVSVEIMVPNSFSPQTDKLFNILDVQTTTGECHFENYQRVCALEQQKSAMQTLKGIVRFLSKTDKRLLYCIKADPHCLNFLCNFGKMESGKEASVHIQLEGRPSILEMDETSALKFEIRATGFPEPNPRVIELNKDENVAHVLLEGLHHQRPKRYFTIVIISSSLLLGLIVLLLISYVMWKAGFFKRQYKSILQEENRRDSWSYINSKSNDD
T1 sequence (P26010 20-798): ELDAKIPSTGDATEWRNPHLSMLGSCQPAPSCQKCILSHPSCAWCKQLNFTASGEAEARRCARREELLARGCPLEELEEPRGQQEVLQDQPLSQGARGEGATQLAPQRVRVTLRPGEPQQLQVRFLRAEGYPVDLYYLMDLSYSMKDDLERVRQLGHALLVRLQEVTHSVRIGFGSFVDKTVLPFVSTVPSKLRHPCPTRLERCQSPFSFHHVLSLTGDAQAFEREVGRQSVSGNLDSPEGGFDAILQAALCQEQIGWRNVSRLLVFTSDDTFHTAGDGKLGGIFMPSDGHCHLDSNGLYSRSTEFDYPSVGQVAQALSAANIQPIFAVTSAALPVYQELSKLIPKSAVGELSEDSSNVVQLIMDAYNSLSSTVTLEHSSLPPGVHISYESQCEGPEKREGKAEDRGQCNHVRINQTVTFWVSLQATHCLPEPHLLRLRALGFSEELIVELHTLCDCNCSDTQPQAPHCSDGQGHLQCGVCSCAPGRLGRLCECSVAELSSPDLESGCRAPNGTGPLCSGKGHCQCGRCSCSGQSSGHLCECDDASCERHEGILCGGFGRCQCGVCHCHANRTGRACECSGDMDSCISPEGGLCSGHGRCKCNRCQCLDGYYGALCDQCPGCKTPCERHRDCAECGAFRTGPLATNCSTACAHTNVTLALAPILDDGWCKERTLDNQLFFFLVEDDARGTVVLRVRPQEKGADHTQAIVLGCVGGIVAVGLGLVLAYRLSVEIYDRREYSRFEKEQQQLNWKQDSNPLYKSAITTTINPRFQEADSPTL
Assay: RPMI 8866/MAdCAM-1 adhesion assay
Assay type: cell-based
Settings: RPMI 8866 cell adhesion to MAdCAM-1, 1 mM MnCl2; mean of n experiments
Experimental: (4) RPMI 8866/MAdCAM-1 Adhesion Assay
This assay was used to investigate the interaction of the integrin α4β7, expressed on the RPMI 8866 (human B lymphoid cell line) cell membrane with MAdCAM-1. Polystyrene 96-well microtitre plates were coated with human immunoglobulin G (IgG; Sigma Chemicals, UK, Product No. 14506) at a concentration of 0.05 mg ml^−1 in bicarbonate buffer (36 mM NaHCO3 and 22 mM Na2CO3, prepared in Dulbecco's phosphate buffered saline at pH 9.8 (PBS); Sigma Chemicals, UK, Product No. 14190-094) for 2 hours at 37° C. This solution was then aspirated and the plates were washed twice with PBS.
MAdCAM-1 was prepared by cloning its constituent domains, under the control of a polyhedrin promoter, into a baculovirus expression system with a zz (Protein A) tag. The amplified baculovirus containing zzMAdCAM-1 was used to infect Spodoptera frugiperda cells growing in suspension in SF900II medium supplemented with 5% foetal calf serum. The cells were infected at a multiplicity of infection of 1 and harvested 48 hours later by centrifugation. Protease inhibitors were added and the culture supernatant was clarified either by filtration through a 0.2 μm filter or by centrifugation. The zzMAdCAM-1 was then purified from this clarified medium using an IgG agarose column, equilibrated with either 20 mM sodium phosphate pH 7.2 alone or in the presence of 0.5M sodium chloride. Elution of zzMAdCAM-1 from the column was mediated using 3M ammonium thiocyanate. The sample was then dialysed thoroughly, using 20 mM sodium phosphate pH 7.2, to remove the ammonium thiocyanate. The purified zzMAdCAM-1 was then concentrated to a small volume (Amicon stirred cell concentrators) until a concentration of 0.5 mg ml^−1 was obtained, calculated using the extinction coefficient value.
This solution of zzMAdCAM-1 was diluted 1:2500 and then incubated overnight at 4° C. in the IgG coated microtitre plates with 3% bovine serum albumin (BSA) in PBS, followed by aspiration and two further washes with PBS. A concentration of the RPMI 8866 cells (3×10^6 cells ml^−1), grown in cell media RPMI 1640 (HyClone Ltd, Product No. B-9106-L) supplemented with 10% heat inactivated foetal calf serum (FCS; Gibco BRL, Product No. 10099-075) and 2 mM L-glutamine, were labelled with 10 μM of the fluorescent dye, 2′, 7′-bis(2-carboxyethyl)-5-(e6)-carboxyfluorescein acetoxymethyl ester (BCECF-AM; Molecular Probes Inc. Product No. B-1150) at 37° C. for 10 minutes. The excess dye was then removed by centrifugation at 500×g for 5 minutes and the cells were resuspended at a concentration of 6×10^6 cells ml^−1 in Hank's balanced salt solution (HBSS; Gibco BRL, Product No. 1419D-094).
Equal volumes of compounds (dissolved in an appropriate solvent and diluted in HBSS containing 1 mM MnCl2) and the labelled RPMI 8866 cells, were added to the MAdCAM-1 coated plates and adhesion was allowed to proceed for 30 minutes at 37° C. Non, or loosely adhered cells, were removed by inversion of the plate and blotted with tissue paper. Two washes with PBS and further blotting were then performed, before the addition of 2% detergent (Triton-X®; Sigma Chemicals UK, Product No. X100). Counting was undertaken in a Wallac Victor™ Fluorimeter, where low fluorescence values were indicative of compounds which had inhibited adhesion. All samples were assayed in singlicate and the following four parameter curve fit, shown by Equation (I) (above) was applied. Wherein the maximum and minimum values are those compared to adhesion in the absence of compound and in the presence of the dipotassium salt of 2 mM EDTA; Sigma Chemicals, UK, Product No. ED2P). Data is presented as the mean pIC50 with the standard error of the mean of n experiments.

| SMILES | IC50 [nM] |
| --- | --- |
| CC(=O)N1CCN(C(=O)Oc2ccc(C[C@H](NC(=O)[C@H](CC(C)C)NC(=O)COc3ccccc3C(C)(C)C)C(=O)O)cc2)CC1 [Example 16, (2S)-3-(4-{[(4-Acetyl-1-piperazinyl)carbonyl]oxy}phenyl)-2-{[(2S)-2-({2-[2-(tert-butyl)phenoxy]acetyl}amino)-4-methylpentanoyl]amino}propanoic acid] | 158 |
| CC(=O)N1CCN(C(=O)Oc2ccc(C[C@H](NC(=O)[C@H](CC(C)C)NC(=O)COc3ccccc3C)C(=O)O)cc2)CC1 [Example 17, (2S)-3-(4-{[(4-Acetyl-1-piperazinyl)carbonyl]oxy}phenyl)-2-[((2S)-4-methyl-2-{[2-(2-methylphenoxy)acetyl]amino}pentanoyl)amino]propanoic acid] | 158 |
| CC(C)C[C@H](NC(=O)COc1ccccc1I)C(=O)N[C@@H](Cc1ccc(OC(=O)N2CCOCC2)cc1)C(=O)O [Example 23, (2S)-2-[((2S)-2-{[2-(2-Iodophenoxy)acetyl]amino}-4-methylpentanoyl)amino]-3-{4-[(4-morpholinylcarbonyl)oxy]phenyl}propanoic acid] | 63.1 |
| CC(C)C[C@H](NC(=O)COc1ccccc1C(C)(C)C)C(=O)N[C@@H](Cc1ccc(OC(=O)N2CCOCC2)cc1)C(=O)O [Example 24, (2S)-2-{[(2S)-2-({2-[2-(Tert-butyl)phenoxy]acetyl}amino)-4-methylpentanoyl]amino}-3-{4-[(4-morpholinylcarbonyl)oxy]phenyl}propanoic acid] | 251 |
| Cc1ccccc1OCC(=O)N[C@@H](CC(C)C)C(=O)N[C@@H](Cc1ccc(OC(=O)N2CCC(C(N)=O)CC2)cc1)C(=O)O [Example 27, (2S)-3-[4-({[4-(Aminocarbonyl)-1-piperidinyl]carbonyl}oxy)phenyl]-2-[((2S)-4-methyl-2-{[2-(2-methylphenoxy)acetyl]amino}pentanoyl)amino]propanoic acid] | 31.6 |

Further lines, results first:

| IC50 [nM] | SMILES |
| --- | --- |
| 200 | CC(C)C[C@H](NC(=O)COc1ccccc1C(C)(C)C)C(=O)N[C@@H](Cc1ccc(OC(=O)N2CCN(C(=O)c3ccccc3)CC2)cc1)C(=O)O [Example 20, (2S)-3-(4-{[(4-Benzoyl-1-piperazinyl)carbonyl]oxy}phenyl)-2-{[(2S)-2-({2-[2-(tert-butyl)phenoxy]acetyl}amino)-4-methylpentanoyl]amino}propanoic acid] |
| 200 | Cc1ccccc1OCC(=O)N[C@@H](CC(C)C)C(=O)N[C@@H](Cc1ccc(OC(=O)N2CCN(C(=O)c3ccccc3)CC2)cc1)C(=O)O [Example 21, (2S)-3-(4-{[(4-Benzoyl-1-piperazinyl)carbonyl]oxy}phenyl)-2-[((2S)-4-methyl-2-{[2-(2-methylphenoxy)acetyl]amino}pentanoyl)amino]propanoic acid] |
| 126 | CC(C)C[C@H](NC(=O)c1cccc2c1oc1ccccc12)C(=O)N[C@@H](Cc1ccc(OC(=O)N2CCC(C(N)=O)CC2)cc1)C(=O)O [Example 28, (2S)-3-[4-({[4-(Aminocarbonyl)-1-piperidinyl]carbonyl}oxy)phenyl]-2-({(2S)-2-[(dibenzo[b,d]furan-4-ylcarbonyl)amino]-4-methylpentanoyl}amino)propanoic acid] |
